Source: patent US9833497B2, “Human originated EGF domain proteins and use of the same” (CHENGDU SOURCEBIO LIMITED-LIABILITY COMPANY, priority 2013, dated 2017)

Legend:
Format in all cases: cell-based
[1] = tested on: Pseudomonas aeruginosa; assay: MIC against Gram-negative bacteria: Pseudomonas aeruginosa; settings: for MIC: P. aeruginosa, 10 h cultivation at 37° C.
In short: (§1)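 Antibacterial activity of purified human EGF domain proteins: two-fold concentration series, triplicate wells, LB broth, 5×10^5 CFU/mL bacteria, 37° C shaking incubation. The lowest concentration without growth defines the MIC.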

[2] = tested on: Moraxella catarrhalis; assay: MIC against Gram-negative bacteria: Moraxella catarrhalis; settings: for MIC: M. catarrhalis, 10 h cultivation at 37° C.
In short: as §1

[3] = tested on: Serratia marcescens; assay: MIC against Gram-negative bacteria: Serratia marcescens; settings: for MIC: S. marcescens, 10 h cultivation at 37° C.
In short: as §1

[4] = tested on: Proteus mirabilis; assay: MIC against Gram-negative bacteria: Proteus mirabilis; settings: for MIC: P. mirabilis, 10 h cultivation at 37° C.
In short: as §1

[5] = tested on: Klebsiella pneumonia; assay: MIC against Gram-negative bacteria: Klebsiella pneumonia; settings: for MIC: K. pneumonia, 10 h cultivation at 37° C.
In short: as §1

[6] = tested on: Enterobacter cloacae; assay: MIC against Gram-negative bacteria: Enterobacter cloacae; settings: for MIC: E. cloacae, 10 h cultivation at 37° C.
In short: as §1

[7] = tested on: E. coli BL21; assay: MIC against Gram-negative bacteria: E. coli BL21; settings: for MIC: 10 h cultivation at 37° C.
In short: as §1

[8] = tested on: Aeromonas hydrophila; assay: MIC against Gram-negative bacteria: Aeromonas hydrophila; settings: for MIC: A. hydrophila, 10 h cultivation at 37° C.
In short: as §1

[9] = tested on: Citrobacter diversus; assay: MIC against Gram-negative bacteria: Citrobacter diversus; settings: for MIC: C. diversus, 10 h cultivation at 37° C.
In short: as §1

[10] = tested on: Proteus vulgaris; assay: MIC against Gram-negative bacteria: Proteus vulgaris; settings: for MIC: P. vulgaris, 10 h cultivation at 37° C.
In short: as §1

[11] = tested on: E. coli DH5α; assay: Antibacterial activity: MIC and growth curve against E. coli DH5α in 96-well plate; settings: minimal inhibitory concentration against E. coli DH5α; 96-well plate, 5×10^5 CFU/mL, 37° C., judged after 8 h
In short: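 MIC taken as lowest protein level with no bacterial growth, tracked by A600 every 30 min during 37 °C, 175 rpm culture. Two-fold protein series 50-12.5 μg/mL final, triplicate wells, against 5×10^5 CFU/mL of LB-washed mid-log cells.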

[12] = 96-well plate, 5×10^5 CFU/mL, 37° C., 10 h

PRT63 (GCNFNNGGCHQDCFEGGDGSFLCGCRPGFRLLDDLVTCA; listed as Homo sapiens)
12.5 µg/mL: MIC (μg/mL) P. aeruginosa ([1]; Pseudomonas aeruginosa, 96-well plate, 5×10^5 CFU/mL, 37° C., 10 h) | MIC (μg/mL) S. marcescens ([3]; Serratia marcescens, 96-well plate, 5×10^5 CFU/mL, 37° C., 10 h) | MIC (μg/mL) P. mirabilis ([4]; Proteus mirabilis, 96-well plate, 5×10^5 CFU/mL, 37° C., 10 h) | MIC (μg/mL) E. cloacae ([6]; Enterobacter cloacae, 96-well plate, 5×10^5 CFU/mL, 37° C., 10 h) | MIC (μg/mL) C. diversus ([9]; Citrobacter diversus, 96-well plate, 5×10^5 CFU/mL, 37° C., 10 h) | MIC [11]
25 µg/mL: MIC (μg/mL) M. catarrhalis ([2]; Moraxella catarrhalis, 96-well plate, 5×10^5 CFU/mL, 37° C., 10 h) | MIC (μg/mL) K. pneumonia ([5]; Klebsiella pneumonia, 96-well plate, 5×10^5 CFU/mL, 37° C., 10 h) | MIC (μg/mL) E. coli BL21 ([7]; E. coli BL21, 96-well plate, 5×10^5 CFU/mL, 37° C., 10 h) | MIC (μg/mL) A. hydrophila ([8]; Aeromonas hydrophila, 96-well plate, 5×10^5 CFU/mL, 37° C., 10 h) | MIC (μg/mL) P. vulgaris ([10]; Proteus vulgaris, 96-well plate, 5×10^5 CFU/mL, 37° C., 10 h)

PRT951 (WTDACLSHPCANGSTCTTVANQFSCKCLTGFTGQKCE; listed as Homo sapiens)
50 µg/mL: MIC [10]
25 µg/mL: MIC [1] | MIC [4] | MIC [5] | MIC ([7]; E. coli BL21) | MIC [9] | MIC [11]
100 µg/mL: MIC [3]
12.5 µg/mL: MIC [2] | MIC [6] | MIC [8]

PRT560 (GSCHPAGLAPVDPALPEAQVPCMCRAHVEGPSCDRCKPGFWGLSPSNPEGCTR; listed as Homo sapiens)
25 µg/mL: MIC against M. catarrhalis [2, 12] | MIC against K. pneumonia [5, 12] | MIC against E. coli BL21 [7, 12] | MIC against A. hydrophila [8, 12]
12.5 µg/mL: MIC [11]
50 µg/mL: MIC against P. aeruginosa [1, 12] | MIC against S. marcescens [3, 12] | MIC against P. mirabilis [4, 12] | MIC against E. cloacae [6, 12] | MIC against C. diversus [9, 12] | MIC against P. vulgaris [10, 12]

PRT671 (RVVVCPLPCMNGGQCSSRNQCLCPPDFTGRFCQ; listed as Homo sapiens)
12.5 µg/mL: MIC P. aeruginosa [1, 12] | MIC S. marcescens [3, 12] | MIC P. mirabilis [4, 12] | MIC K. pneumonia [5, 12] | MIC E. cloacae [6, 12] | MIC E. coli BL21 [7, 12] | MIC C. diversus [9, 12]
25 µg/mL: MIC M. catarrhalis [2, 12] | MIC A. hydrophila [8, 12] | MIC P. vulgaris [10, 12]
50 µg/mL: MIC [11]

PRT699 (DVDECSSGAPPCGPHGHCTNTEGSFRCSCAPGYRAPSGRPGPCA; listed as Homo sapiens)
50 µg/mL: MIC S. marcescens [3, 12] | MIC E. cloacae [6, 12] | MIC C. diversus [9, 12] | MIC [11]
12.5 µg/mL: MIC P. aeruginosa [1, 12] | MIC P. mirabilis [4, 12] | MIC A. hydrophila [8, 12]
25 µg/mL: MIC M. catarrhalis [2, 12] | MIC K. pneumonia [5, 12] | MIC E. coli BL21 [7, 12] | MIC P. vulgaris [10, 12]

PRT984 (SNASCAAAPCLHGGSCRPAPLAPFFRCACAQGWTGPRCE; listed as Homo sapiens)
12.5 µg/mL: MIC [2] | MIC [3] | MIC ([7]; E. coli BL21) | MIC [8] | MIC [9]
50 µg/mL: MIC [4] | MIC [5] | MIC [11]
25 µg/mL: MIC [1] | MIC [6] | MIC [10]

PRT464 (DLDECRVRNLCQHACRNTEGSYQCLCPAGYRLLPSGKNCQ; listed as Homo sapiens)
25 µg/mL: MIC against M. catarrhalis [2, 12] | MIC against A. hydrophila [8, 12]
50 µg/mL: MIC against K. pneumonia [5, 12] | MIC against E. coli BL21 [7, 12] | MIC against C. diversus [9, 12] | MIC against P. vulgaris [10, 12]
12.5 µg/mL: MIC against P. aeruginosa [1, 12] | MIC against S. marcescens [3, 12] | MIC against P. mirabilis [4, 12] | MIC against E. cloacae [6, 12] | MIC [11]
